Positions of bridges follow the written chain, without caps; N, C: chain ends. No end group written: not given here.

Experimental findings from patent publication US3933784A, “Des-(ser^13)-srif and intermediates” (American Home Products Corporation, priority 1975, dated 1976) are described below.

The test system of this test is growth hormone. The test can be described thus: Growth hormone activity in nembutal-treated rats, growth hormone level by radioimmunoassay. Type of test: in vivo. To be noted: rats 200-250 g, nembutal 50 mg/kg i.p., 5 minutes later compound 800 μg per rat s.c. in saline; blood taken 15 minutes after injection; control rats 159 ± 16 ng/ml. On the procedure:
After hydrolysis of the peptide in methanesulfonic acid for 18 hours at 120°C in an evacuated sealed tube, the following values for the amino acid residues are obtained: Ala 1.00, Gly 1.00, Cys 1.59, Lys 1.88, Asp 0.99, Phe 3.05, Trp (present, but not quantitated), Thr 1.76. The growth hormone activity of the compound of Example 3 was determined by injecting rats weighing about 200-250 g first with nembutal intraperitoneally at a dose of 50 mg/kg then after 5 minutes injecting the rats subcutaneously with a solution of the compound of Example 3 in saline at a dose of 800 μg per rat. Blood samples are taken 15 minutes after injection with the compound of Example 3 and the growth hormone level determined by radioimmunoassay.

On to “L-alanylglycyl-L-cysteinyl-L-lysyl-L-asparaginyl-L-phenylalanyl-L-phenylalanyl-L-tryptophyl-L-lysyl-L-threonyl-L-phenylalanyl-L-threonyl-L-cysteine-(3-13 cyclic) disulfide (AGCKNFFWKTFTC; disulfide 3-13; UniProt P61278 103-116, looked up, variant S13*) [Example 3, tridecapeptide analog of somatostatin in which the amino acid in the thirteen position has been omitted]”, for which the growth hormone level is 49 ± 7 ng/mL.
